Test results reported in patent US8637470B2, “Small humanin-like peptides” (The Regents of the University of California, priority 2008, dated 2014).
“Also recorded” adds a separate entry of the source. Where no end group is shown, it is not given here.

Experiments:
[1] = tested on: Mouse primary cortical neurons; assay: Protection of primary cortical neurons from Aβ-induced cell death (Calcein-AM); format: cell-based; conditions: 72 h
Protocol: SHLPs protect neurons from Aβ-induced apoptosis. When it was first discovered, HN was described as a potent neural survival factor with clinical implications as a therapeutic agent against neurodegenerative diseases such as Alzheimer's Disease. Since many of the SHLPs appear to be functionally related to HN, SHLPs were tested as potential neuroprotective factors. Mouse primary cortical neurons were incubated with 25 μM Aβ1-43 in the presence or absence of 100 nM SHLP2 or 3, HNG (positive control) or 1 nM colivelin (positive control). After 72 h, neuronal viability was assessed by Calcein-AM staining followed by fluorescence microscopy (FIG. 13).

S. cerevisiae = assay: Yeast heat shock survival; format: cell-based; conditions: 10 μM peptide, 90° heat shock
Protocol: SHLPs enhance stress resistance in yeast. The ability of SHLPs to enhance stress resistance in yeast was tested. The ability of yeast to survive heat shock after being treated with different peptides is a commonly used method to test the ability of peptides to enhance yeast survival.

[2] = tested on: Mouse NIT-1 insulinoma β-cells; assay: Apoptosis ELISA (fragmentation of histone-associated DNA) in NIT-1 cells; format: cell-based; conditions: NIT-1, serum starved 24 h, then 24 h with 100 nM peptide
Protocol: (§1) SHLPs are anti-apoptotic in 22RV1 prostate cancer cells and NIT-1 β-cells. […] Mouse NIT-1 insulinoma β-cells and 22RV1 human prostate cancer cells were serum starved for 24 h, followed by 24 h incubation with 100 nM scrambled control peptide, HN or SHLPs. Apoptosis was assessed and quantified by ELISA for fragmentation of histone-associated DNA.
(§2) ERK activation is necessary for SHLP-induced inhibition of apoptosis in NIT-1 and 22RV1 cells. To determine the significance of ERK activation for apoptosis inhibition by SHLPs 2 and 3, PD98059 (PD), a specific chemical inhibitor of ERK1/2, was utilized. 22RV1 and NIT-1 cells were serum starved for 24 h in the presence or absence of 25 μM PD or 1 μM wortmannin (PI3-kinase inhibitor; negative control), followed by 24 h incubation with […] scrambled control peptide, SHLP2 or SHLP3. Apoptosis was then assessed by ELISA for fragmentation of histone-associated DNA.
Role of IGFBP-3 in effects of SHLPs on cell survival. Since IGFBP-3 is an important regulator of HN action, IGFBP-3 was tested for a possible role in regulating the anti- or pro-apoptotic actions of SHLPs. NIT-1 cells were incubated with 1 μg/ml IGFBP-3±0, 10, 100 or 1000 nM SHLP2 or 3 for 24 h. Apoptosis induction was assessed by ELISA for fragmentation of histone-associated DNA.
Co-incubation of SHLPs. To evaluate therapeutic uses involving co-treatment with SHLPs, the effect of HN±SHLPs on apoptosis was tested in both 22RV1 and NIT-1 cells. Cells were incubated in SF media for 24 h followed by 24 h with 100 nM HN, SHLP or peptide combination. Apoptosis was assessed by ELISA for fragmentation of histone-associated DNA. Cells were treated with all possible double peptide combinations. Although many peptide combinations had no additive or combined effects compared with the actions of the peptides individually, co-treatment with certain combinations led to unexpected functional changes (FIG. 11). […] Thus, specific SHLPs may either act on complementary pathways, or interact with each other, leading to change of function of one or both peptides. When the same experiments were repeated in NIT-1 cells, similar, but different, change of function effects were observed (FIG. 11B).

biotinylated-HN = biotinylated-HN (Homo sapiens, UniProt Q8IVG9); assay: Dot-blot binding to biotinylated-HN; conditions: 2, 5 or 10 nmol peptide dotted on nitrocellulose
Protocol: To test a dimerization hypothesis, we performed a dot-blot using biotinylated-HN. Two, 5 or 10 nmol IGF-I (negative control), HN (positive control) or SHLP peptide were dotted on to nitrocellulose membrane, and their ability to bind to biotinylated-HN was assessed immunologically. […] Specific interactions that occur may be determined using, e.g., dot blots with biotinylated SHLPs, and/or antibodies against specific SHLPs.

ERK = ERK activation in 22RV1 cells (immunoblotting, ELISA); format: cell-based, human; conditions: 22RV1, 100 nM
Protocol: Characterization of the intracellular signaling pathways activated by SHLPs. To determine a mechanism for the growth and apoptosis effects of SHLPs, SHLPs were tested for the ability to modulate activation of intracellular signaling pathways. 22RV1 cells in SF media were treated with 100 nM SHLP 1-5 and whole cell extracts were harvested after 15 min, 30 min, 2 h, 4 h, 8 h and 24 h. Proteins were separated by SDS-PAGE and analyzed by immunoblotting.
To test the hypothesis that SHLPs may act in concert to regulate intracellular signaling, 22RV1 cells were co-treated with SHLPs 2 and 3, and ERK activation was assessed.
Since HN causes activation of STAT3, SHLPs 2 and 3 were also tested for effects on STAT3. […] To more accurately quantify the ERK phosphorylation caused by SHLPs 2 and 3, we repeated the experiment as described above but used a commercially available ERK ELISA to assess ERK phosphorylation. Optimal ERK activation by SHLP2 was 9-fold after 24 h, whilst optimal activation by SHLP3 was 12-fold after 2 h (FIG. 5).

[3] = tested on: Mouse NIT-1 insulinoma β-cells; assay: Cell proliferation (cell number by MTT/MTS cleavage) in NIT-1 cells; format: cell-based; conditions: NIT-1, 100 nM peptide, 72 h
Protocol: (§3) SHLPs exert distinct effects on cell proliferation. Whether SHLPs have the capacity to influence cell proliferation, in addition to their intrinsic effects on apoptosis induction, was also investigated. Mouse NIT-1 insulinoma β-cells and 22RV1 human prostate cancer cells were serum starved for 24 h, followed by 72 h incubation with 100 nM scrambled control peptide, HN or SHLPs. Cell number, as a measure of cell proliferation, was assessed by cleavage of MTT substrate.

[4] = tested on: 22RV1 human prostate cancer cells; assay: Cell proliferation (cell number by MTT/MTS cleavage) in 22RV1 cells; format: cell-based; conditions: 22RV1, 100 nM peptide, 72 h
Protocol: as §3
Pro-apoptotic effect on human prostate cancer cells in vitro. To assess the ability of SHLP6 to induce apoptosis in human prostate cancer cells, PC-3, 22RV1 or DU145 cells were incubated in serum free (SF) media for 24 h followed by 24 h incubation with 1 μM scrambled (control) peptide or SHLP6. Apoptosis was assessed by ELISA for fragmentation of histone-associated DNA. In each cell line tested, SHLP6 induced apoptosis by at least 2-fold (FIG. 2), confirming highly significant physiological effects of this novel peptide. To determine whether the effects of SHLP6 were specific to induction of apoptosis, or if it also elicited growth-inhibitory effects, PC-3, DU-145, 22RV1, LAPC4 and LNCaP cells were incubated in SF media for 24 h followed by 72 h incubation with 1 μM SHLP6. Cell number, as a measure of cell proliferation, was assessed by cleavage of MTS substrate.

[5] = tested on: 22RV1 human prostate cancer cells; assay: Apoptosis ELISA (fragmentation of histone-associated DNA) in 22RV1 cells; format: cell-based; conditions: 22RV1, serum starved 24 h, then 24 h with 100 nM peptide
Protocol: as §1, §2
STAT3 Activation is also necessary for SHLP-induced cell survival in 22RV1 cells. Since SHLPs 2 and 3 both stimulate STAT3 phosphorylation in addition to ERK activation, the hypothesis that STAT3 activation occurs downstream of ERK1/2 was tested using a specific chemical inhibitor against STAT3, stattic. 22RV1 cells were incubated for 24 h in SF media in the presence or absence of 20 μM stattic followed by 24 h incubation with 100 nM scrambled control peptide, SHLP2 or SHLP3. Apoptosis was assessed by ELISA for fragmentation of histone-associated DNA. […]

[6] = tested on: 22RV1 prostate cancer xenografts; conditions: mouse, in vivo, ip, 4 mg/kg/day
Protocol: Inhibition of 22RV1 xenograft tumor growth and angiogenesis in vivo. In light of the pro-apoptotic actions of SHLP6 in vitro and the association of many cancers with mitochondrial dysfunction, the effect of SHLP6 on tumor growth was investigated in vivo. SCID mice harboring 22RV1 prostate cancer xenografts were treated with 4 mg/kg/day SHLP6 or scrambled control peptide by daily i.p. injection for 7 days.
To assess the mechanism underlying the reduction in tumor growth, tumor apoptosis (TUNEL), angiogenesis (VEGF) and tumor cell proliferation (PCNA; not shown) were assessed by IHC (FIG. 19). […] SHLP6 therefore has great potential as an anti-cancer agent.

Substance | Binding to biotinylated-HN (dot-blot) (biotinylated-HN) | Cell number as a measure of cell proliferation [3] | Cell number as a measure of cell proliferation [4] | Apoptosis (fragmentation of histone-associated DNA) [5] | other results
HNG: HNG (S14G), hyper-potent HN analog (MAPRGFSCLLLLTGEIDLPVKRRA; Humanin; UniProt Q8IVG9 1-24, looked up, variant S14G) [reference compound] | – | – | – | – | Neuronal viability against Aβ-induced cell death ([1]; 25 μM Aβ1-43, 100 nM peptide): inhibited
MAPRGFSCLLLLTSEIDLPVKRRA [HN, reference compound] | dimerize/multimerize with itself | – | – | – | Yeast survival of heat shock (S. cerevisiae): allowed the yeast to withstand 90° heat shock; Apoptosis (fragmentation of histone-associated DNA) [2]: anti-apoptotic effects
MCHWAGGASNTGDARGDVFGKQAG [SHLP1, small humanin-like peptide, mtDNA 2490-2561] | no interaction | slightly stimulated the proliferation | slightly stimulated the proliferation | minimal effect | Duration of sustained ERK phosphorylation (ERK): approximately 8 h; Increase in ERK phosphorylation (immunoblotting) (ERK; within 30 min): 5 fold
MLDQDIPMVQPLLKVRLFND [SHLP6] | – | – | – | – | Signs of toxicity [6]: no detectable signs of toxicity
MLEVMFLVNRRGKICRVPFTFFNLSL [SHLP4, small humanin-like peptide, mtDNA 2446-2524] | very strong interactions; also recorded: binds | slightly stimulated the proliferation | slightly stimulated the proliferation | minimal effect | Apoptosis (fragmentation of histone-associated DNA) [2]: anti-apoptotic effects
MYCSEVGFCSEVAPTEIFNAGLVV [SHLP5, small humanin-like peptide, mtDNA 2785-2856] | – | slightly stimulated the proliferation | slightly stimulated the proliferation | minimal effect | ERK activation profile (immunoblotting) (ERK; 15 min to 24 h): no observable effect
colivelin [reference compound] | – | – | – | – | Neuronal viability against Aβ-induced cell death ([1]; 25 μM Aβ1-43, 1 nM colivelin): inhibited
